Reference: US10849907B2, “Imidazopyridine derivatives and the use thereof as medicament” (Boehringer Ingelheim International GmbH, priority 2017, dated 2020)

Experiments:
[1] = Metabolic stability in pooled human liver microsomes; format: in vitro ADME; conditions: pH 7.6; pooled human liver microsomes 1 mg/mL, 1 μM compound, 37° C., NADPH; read-out: Half-life - t½ human liver microsomes
Description: Stability in human liver microsomes refers to the susceptibility of compounds to biotransformation in the context of selecting and/or designing drugs with favorable pharmacokinetic properties. The primary site of metabolism for many drugs is the liver. Human liver microsomes contain the cytochrome P450s (CYPs), and thus represent a model system for studying drug metabolization in vitro. Enhanced stability in human liver microsomes is associated with several advantages, including increased bioavailability and adequate half-life, which can enable lower and less frequent dosing of patients. Thus, enhanced stability in human liver microsomes is a favorable characteristic for compounds that are to be used for drugs.
The metabolic degradation of the test compound was assayed at 37° C. with pooled human liver microsomes. The final incubation volume of 60 μl per time point contains TRIS buffer pH 7.6 at room temperature (0.1 M), magnesium chloride (5 mM aqueous solution), microsomal protein (1 mg/mL for human) and the test compound at a final concentration of 1 μM. Following a short preincubation period at 37° C., the reactions were initiated by addition of betanicotinamide adenine dinucleotide phosphate, reduced form (NADPH, 1 mM), and terminated by transferring an aliquot into solvent after different time points. After centrifugation (10000 g, 5 min), an aliquot of the supernatant was assayed by LC-MS/MS for the amount of parent compound. The half-life was determined by the slope of the semi-logarithmic plot of the concentration-time profile.

[2] = biological target: T1, human MDR1 (P-gp) (Homo sapiens, UniProt P08183); assay: MDCK assay MDR-1 (p-GP): permeability across MDCK-MDR1 monolayers; format: in vitro ADME; conditions: for Papp A→B: MDCK-MDR1 monolayers, apical-to-basal, pH 7.4, 1 or 10 μM; for efflux ratio: pH 7.4, MDCK-MDR1, Papp (b-a) divided by Papp (a-b)
T1 construct: expressed in transfected cells; host or cells: MDCKII (Madin-Darby canine kidney) cells
Method: The MDCK assays provide information on the potential of a compound to pass the blood brain barrier. Permeability measurements across polarized, confluent MDCK-MDR1 cell monolayers grown on permeable filter supports are used as an in vitro absorption model: apparent permeability coefficients (PE) of the compounds across the MDCK-MDR1 cell monolayers are measured (pH 7.4, 37° C.) in apical-to-basal (AB) and basal-to-apical (BA) transport direction. The AB permeability (PEAB) represents drug absorption from the blood into the brain and the BA permeability (PEBA) drug efflux from the brain back into the blood via both, passive permeability as well as active transport mechanisms mediated by efflux and uptake transporters that are expressed on the MDCK-MDR1 cells, predominantly by the overexpressed human MDR1. Identical or similar permeabilities in both transport directions indicate passive permeation, vectorial permeability points to additional active transport mechanisms. Higher PEBA than PEAB (PEBA/PEAB >5) indicates the involvement of active efflux mediated by MDR1, which might compromise the goal to achieve sufficient brain exposure. Therefore, this assay provides valuable support for selection of compounds applicable for further in vivo testing. High permeability not limited by efflux at the blood brain barrier is a favourable characteristic for compounds that are to be used for drugs acting primarily in the CNS. Similar concepts are applicable to the MDCK BCRP assay and its interpretation; consequently, to ensure high permeability at the blood brain barrier, it is highly preferred to minimize the efflux (efflux <5) at both MDR1 and BCRP transporters.
Apparent permeability coefficients (Papp) of the compounds across the MDCK-MDR1 monolayers (MDCKII cells transfected with human MDR1 cDNA expression plasmid) are measured in apical-to-basal (AB) and basal-to-apical (BA) direction.
MDCK-MDR1 cells (6×10^5 cells/cm^2) are seeded on filter inserts (Corning, Transwell, polycarbonate, 0.4 μm pore size) and cultured for 9 to 10 days. Compounds dissolved in DMSO stock solution (1-20 mM) are diluted with HTP-4 aqueous buffer (128.13 mM NaCl, 5.36 mM KCl, 1 mM MgSO4, 1.8 mM CaCl2, 4.17 mM NaHCO3, 1.19 mM Na2HPO4, 0.41 mM NaH2PO4, 15 mM HEPES, 20 mM glucose, pH 7.4) supplemented with 0.25% BSA to prepare the transport solutions (final concentration: 1 or 10 μM, final DMSO <=0.5%). The transport solution is applied to the apical or basolateral donor side for measuring A-B or B-A permeability, respectively. The receiver side contains HTP-4 buffer supplemented with 0.25% BSA. Samples are collected at the start and end of experiment from the donor and at various time intervals for up to 2 hours also from the receiver side for concentration measurement by HPLC-MS/MS. Sampled receiver volumes are replaced with fresh receiver solution. Efflux ratio is calculated dividing the Papp (b-a) values by the Papp (a-b) values.

T1 sequence (P08183 whole entry): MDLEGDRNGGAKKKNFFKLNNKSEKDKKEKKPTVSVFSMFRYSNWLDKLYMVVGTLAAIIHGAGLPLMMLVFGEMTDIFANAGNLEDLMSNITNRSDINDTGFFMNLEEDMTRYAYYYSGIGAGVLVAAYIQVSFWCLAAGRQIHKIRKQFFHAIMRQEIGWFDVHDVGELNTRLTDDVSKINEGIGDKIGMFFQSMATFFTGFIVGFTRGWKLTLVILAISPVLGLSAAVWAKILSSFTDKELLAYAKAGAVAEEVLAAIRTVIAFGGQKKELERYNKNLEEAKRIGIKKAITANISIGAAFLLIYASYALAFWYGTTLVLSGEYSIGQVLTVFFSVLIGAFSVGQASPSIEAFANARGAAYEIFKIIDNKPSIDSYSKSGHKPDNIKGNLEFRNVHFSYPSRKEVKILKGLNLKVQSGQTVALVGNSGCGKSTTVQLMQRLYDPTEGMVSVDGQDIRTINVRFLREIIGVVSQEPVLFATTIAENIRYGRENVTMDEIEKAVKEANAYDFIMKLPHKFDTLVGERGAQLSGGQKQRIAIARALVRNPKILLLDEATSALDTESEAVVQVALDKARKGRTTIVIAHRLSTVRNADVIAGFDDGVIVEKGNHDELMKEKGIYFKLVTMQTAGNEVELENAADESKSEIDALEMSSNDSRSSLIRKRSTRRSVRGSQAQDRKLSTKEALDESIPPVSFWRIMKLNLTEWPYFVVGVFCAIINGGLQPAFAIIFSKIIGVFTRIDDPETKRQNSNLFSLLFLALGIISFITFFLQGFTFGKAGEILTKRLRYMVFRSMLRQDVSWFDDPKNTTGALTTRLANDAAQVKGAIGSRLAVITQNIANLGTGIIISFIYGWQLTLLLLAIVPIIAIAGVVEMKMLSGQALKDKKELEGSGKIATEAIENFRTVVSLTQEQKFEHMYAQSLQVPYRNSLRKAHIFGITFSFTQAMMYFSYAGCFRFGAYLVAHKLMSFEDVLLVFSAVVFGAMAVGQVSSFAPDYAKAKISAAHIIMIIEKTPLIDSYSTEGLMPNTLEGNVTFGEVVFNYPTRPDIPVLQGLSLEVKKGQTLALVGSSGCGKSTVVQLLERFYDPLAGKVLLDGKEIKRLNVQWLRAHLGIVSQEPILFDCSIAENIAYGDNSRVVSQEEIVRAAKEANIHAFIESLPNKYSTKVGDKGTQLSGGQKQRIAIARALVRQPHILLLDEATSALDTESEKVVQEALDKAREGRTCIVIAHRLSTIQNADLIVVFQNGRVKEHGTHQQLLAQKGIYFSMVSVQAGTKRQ

Compound	half-life at 1 µM [1] [min]	Papp A→B [2] [×10⁻⁶ cm/s]	efflux ratio [2]
O=C(OCc1ccccc1)N1CCO[C@H](c2nc3cccnc3[nH]2)C1 [Example 17]	> 130	40	1.3
O=C(OCc1ccc(Cl)cc1)N1CCO[C@H](c2nc3cccnc3[nH]2)C1 [Example 28]	> 130	42	1.1
Cc1ccc(COC(=O)N2CCO[C@H](c3nc4cc(F)cnc4[nH]3)C2)cc1 [Example 31]	16	18	1.8
O=C(OCc1c(F)cccc1F)N1CCO[C@H](c2nc3cccnc3[nH]2)C1 [Example 16]	> 130	41	1.2
Cc1ccc(COC(=O)N2CCO[C@H](c3nc4cccnc4[nH]3)C2)cc1 [Example 18]	51	37	1.3
O=C(OCc1cccc(F)c1)N1CCO[C@H](c2nc3cccnc3[nH]2)C1 [Example 1]	38	61	0.9
Cc1ccccc1COC(=O)N1CCO[C@H](c2nc3cccnc3[nH]2)C1 [Example 8]	14	39	1.6
O=C(OCc1ccc(C(F)F)cc1)N1CCO[C@H](c2nc3cccnc3[nH]2)C1 [Example 26]	> 130	32	2
O=C(OCc1ccccc1Cl)N1CCO[C@H](c2nc3cccnc3[nH]2)C1 [Example 14]	27	38	1.1
O=C(OCc1ccc(F)cc1)N1CCO[C@H](c2nc3cccnc3[nH]2)C1 [Example 2]	76	31.5	1.7

Now from value to molecule:

half-life at 1 µM [1] [min]	Papp A→B [2] [×10⁻⁶ cm/s]	efflux ratio [2]	Compound
12	37	1.6	Cc1cccc(F)c1COC(=O)N1CCO[C@H](c2nc3cccnc3[nH]2)C1 [Example 10]
130	42	1.6	O=C(OCc1ccc(F)cc1F)N1CCO[C@H](c2nc3cccnc3[nH]2)C1 [Example 19]
130	65	1.2	O=C(OCc1ccccc1F)N1CCO[C@H](c2nc3cccnc3[nH]2)C1 [Example 27]
37	35	1.3	O=C(OCc1ccc(F)cc1Cl)N1CCO[C@H](c2nc3cccnc3[nH]2)C1 [Example 13]
24	32	1.4	Cc1ccc(COC(=O)N2CCO[C@H](c3nc4cccnc4[nH]3)C2)c(F)c1 [Example 11]
36	46	0.9	Cc1ccc(COC(=O)N2CCO[C@H](c3nc4cccnc4[nH]3)C2)cc1F [Example 12]
86	59	1.2	O=C(OCc1cccc(F)c1F)N1CCO[C@H](c2nc3cccnc3[nH]2)C1 [Example 15]
